Reference: ChEMBL document CHEMBL3399966, “Isosteric replacements of the carboxylic acid of drug candidate VX-787: Effect of charge on antiviral potency and kinase activity of azaindole-based influenza PB2 inhibitors” (Bioorg Med Chem Lett, 2015)

Assays:
[1] = target: T1, Interleukin-1 receptor-associated kinase 4 (Homo sapiens, UniProt Q9NWZ3); assay: Inhibition of IRAK4 (unknown origin)
T1 sequence (Q9NWZ3 whole entry): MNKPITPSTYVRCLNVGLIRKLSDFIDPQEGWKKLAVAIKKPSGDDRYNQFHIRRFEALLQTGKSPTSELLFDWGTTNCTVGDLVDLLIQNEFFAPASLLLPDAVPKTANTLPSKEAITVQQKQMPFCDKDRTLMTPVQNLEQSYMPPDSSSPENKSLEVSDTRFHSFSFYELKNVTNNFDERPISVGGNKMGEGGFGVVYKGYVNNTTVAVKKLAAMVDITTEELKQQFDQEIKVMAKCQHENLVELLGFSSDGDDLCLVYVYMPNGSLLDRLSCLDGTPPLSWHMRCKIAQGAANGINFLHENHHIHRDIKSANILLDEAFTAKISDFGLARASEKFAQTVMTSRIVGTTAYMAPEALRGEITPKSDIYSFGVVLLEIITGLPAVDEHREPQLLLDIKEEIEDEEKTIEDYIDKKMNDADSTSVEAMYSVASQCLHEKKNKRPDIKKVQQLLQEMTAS

[2] = target: T2, Phosphatidylinositol 4,5-bisphosphate 3-kinase catalytic subunit delta isoform (Homo sapiens, UniProt O00329); assay: Inhibition of PI3Kdelta (unknown origin)
T2 sequence (O00329 whole entry): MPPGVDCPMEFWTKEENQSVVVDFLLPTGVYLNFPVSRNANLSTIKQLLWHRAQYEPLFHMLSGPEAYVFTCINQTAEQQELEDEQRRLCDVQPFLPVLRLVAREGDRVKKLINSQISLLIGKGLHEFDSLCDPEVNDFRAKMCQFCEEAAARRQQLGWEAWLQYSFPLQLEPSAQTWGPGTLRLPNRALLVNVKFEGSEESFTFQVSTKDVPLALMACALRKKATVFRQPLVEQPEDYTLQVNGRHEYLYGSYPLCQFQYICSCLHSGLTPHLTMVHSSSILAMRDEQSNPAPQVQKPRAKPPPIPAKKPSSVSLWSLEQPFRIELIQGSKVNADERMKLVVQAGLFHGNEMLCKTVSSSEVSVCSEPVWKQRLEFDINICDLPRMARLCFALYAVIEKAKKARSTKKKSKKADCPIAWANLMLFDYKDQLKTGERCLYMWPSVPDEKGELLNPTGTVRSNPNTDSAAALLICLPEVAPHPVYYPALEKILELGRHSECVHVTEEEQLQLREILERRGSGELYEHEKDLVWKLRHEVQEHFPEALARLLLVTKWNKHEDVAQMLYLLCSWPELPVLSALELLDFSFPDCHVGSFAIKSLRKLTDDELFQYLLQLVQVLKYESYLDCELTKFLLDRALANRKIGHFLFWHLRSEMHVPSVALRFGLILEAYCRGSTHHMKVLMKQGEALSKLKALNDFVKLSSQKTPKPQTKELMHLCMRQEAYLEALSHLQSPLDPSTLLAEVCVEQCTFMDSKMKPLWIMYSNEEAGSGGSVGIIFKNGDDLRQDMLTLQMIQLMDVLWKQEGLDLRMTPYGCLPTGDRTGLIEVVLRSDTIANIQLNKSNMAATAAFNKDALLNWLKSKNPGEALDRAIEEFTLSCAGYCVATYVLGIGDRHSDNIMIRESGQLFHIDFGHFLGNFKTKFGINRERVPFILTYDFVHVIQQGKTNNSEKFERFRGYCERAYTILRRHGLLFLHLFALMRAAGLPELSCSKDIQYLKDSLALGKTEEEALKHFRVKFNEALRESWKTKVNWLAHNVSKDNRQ

[3] = target: Vascular endothelial growth factor receptor 2 (Homo sapiens, UniProt P35968); assay: Inhibition of KDR (unknown origin)
Sequence of Vascular endothelial growth factor receptor 2 (P35968 whole entry): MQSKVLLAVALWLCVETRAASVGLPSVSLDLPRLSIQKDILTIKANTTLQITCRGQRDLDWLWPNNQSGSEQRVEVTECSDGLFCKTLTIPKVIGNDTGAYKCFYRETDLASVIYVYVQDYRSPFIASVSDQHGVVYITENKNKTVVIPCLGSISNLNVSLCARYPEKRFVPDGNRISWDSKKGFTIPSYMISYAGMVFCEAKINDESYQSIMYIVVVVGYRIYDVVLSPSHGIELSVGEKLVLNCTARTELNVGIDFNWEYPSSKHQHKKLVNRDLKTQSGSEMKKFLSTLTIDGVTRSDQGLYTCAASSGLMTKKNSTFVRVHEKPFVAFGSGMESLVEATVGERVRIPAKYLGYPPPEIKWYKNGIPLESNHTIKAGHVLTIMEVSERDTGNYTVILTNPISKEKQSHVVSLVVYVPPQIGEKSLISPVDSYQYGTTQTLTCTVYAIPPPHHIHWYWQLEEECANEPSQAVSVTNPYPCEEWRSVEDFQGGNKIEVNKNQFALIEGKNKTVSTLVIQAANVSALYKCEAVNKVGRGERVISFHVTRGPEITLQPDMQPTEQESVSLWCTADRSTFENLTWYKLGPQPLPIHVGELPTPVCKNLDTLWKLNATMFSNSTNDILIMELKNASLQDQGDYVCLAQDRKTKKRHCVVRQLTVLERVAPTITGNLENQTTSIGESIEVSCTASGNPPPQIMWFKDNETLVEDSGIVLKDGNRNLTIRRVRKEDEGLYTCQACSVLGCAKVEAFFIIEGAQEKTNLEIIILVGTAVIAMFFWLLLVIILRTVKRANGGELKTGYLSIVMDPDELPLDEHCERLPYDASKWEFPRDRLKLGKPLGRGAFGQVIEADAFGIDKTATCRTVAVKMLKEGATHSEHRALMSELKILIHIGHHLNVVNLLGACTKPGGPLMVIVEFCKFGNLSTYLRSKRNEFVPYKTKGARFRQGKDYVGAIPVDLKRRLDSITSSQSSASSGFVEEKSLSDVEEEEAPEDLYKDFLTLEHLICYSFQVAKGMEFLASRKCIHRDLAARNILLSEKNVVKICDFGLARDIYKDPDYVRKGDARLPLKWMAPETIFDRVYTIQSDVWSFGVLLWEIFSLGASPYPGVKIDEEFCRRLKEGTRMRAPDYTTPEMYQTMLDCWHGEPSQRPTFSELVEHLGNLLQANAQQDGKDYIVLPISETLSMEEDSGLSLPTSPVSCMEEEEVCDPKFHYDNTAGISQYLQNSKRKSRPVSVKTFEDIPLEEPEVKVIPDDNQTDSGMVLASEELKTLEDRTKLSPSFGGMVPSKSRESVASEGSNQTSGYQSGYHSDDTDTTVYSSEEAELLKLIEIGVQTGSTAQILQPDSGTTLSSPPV

[4] = target: Hepatocyte growth factor receptor (Homo sapiens, UniProt P08581); assay: Inhibition of MET (unknown origin)
Sequence of Hepatocyte growth factor receptor (P08581 whole entry): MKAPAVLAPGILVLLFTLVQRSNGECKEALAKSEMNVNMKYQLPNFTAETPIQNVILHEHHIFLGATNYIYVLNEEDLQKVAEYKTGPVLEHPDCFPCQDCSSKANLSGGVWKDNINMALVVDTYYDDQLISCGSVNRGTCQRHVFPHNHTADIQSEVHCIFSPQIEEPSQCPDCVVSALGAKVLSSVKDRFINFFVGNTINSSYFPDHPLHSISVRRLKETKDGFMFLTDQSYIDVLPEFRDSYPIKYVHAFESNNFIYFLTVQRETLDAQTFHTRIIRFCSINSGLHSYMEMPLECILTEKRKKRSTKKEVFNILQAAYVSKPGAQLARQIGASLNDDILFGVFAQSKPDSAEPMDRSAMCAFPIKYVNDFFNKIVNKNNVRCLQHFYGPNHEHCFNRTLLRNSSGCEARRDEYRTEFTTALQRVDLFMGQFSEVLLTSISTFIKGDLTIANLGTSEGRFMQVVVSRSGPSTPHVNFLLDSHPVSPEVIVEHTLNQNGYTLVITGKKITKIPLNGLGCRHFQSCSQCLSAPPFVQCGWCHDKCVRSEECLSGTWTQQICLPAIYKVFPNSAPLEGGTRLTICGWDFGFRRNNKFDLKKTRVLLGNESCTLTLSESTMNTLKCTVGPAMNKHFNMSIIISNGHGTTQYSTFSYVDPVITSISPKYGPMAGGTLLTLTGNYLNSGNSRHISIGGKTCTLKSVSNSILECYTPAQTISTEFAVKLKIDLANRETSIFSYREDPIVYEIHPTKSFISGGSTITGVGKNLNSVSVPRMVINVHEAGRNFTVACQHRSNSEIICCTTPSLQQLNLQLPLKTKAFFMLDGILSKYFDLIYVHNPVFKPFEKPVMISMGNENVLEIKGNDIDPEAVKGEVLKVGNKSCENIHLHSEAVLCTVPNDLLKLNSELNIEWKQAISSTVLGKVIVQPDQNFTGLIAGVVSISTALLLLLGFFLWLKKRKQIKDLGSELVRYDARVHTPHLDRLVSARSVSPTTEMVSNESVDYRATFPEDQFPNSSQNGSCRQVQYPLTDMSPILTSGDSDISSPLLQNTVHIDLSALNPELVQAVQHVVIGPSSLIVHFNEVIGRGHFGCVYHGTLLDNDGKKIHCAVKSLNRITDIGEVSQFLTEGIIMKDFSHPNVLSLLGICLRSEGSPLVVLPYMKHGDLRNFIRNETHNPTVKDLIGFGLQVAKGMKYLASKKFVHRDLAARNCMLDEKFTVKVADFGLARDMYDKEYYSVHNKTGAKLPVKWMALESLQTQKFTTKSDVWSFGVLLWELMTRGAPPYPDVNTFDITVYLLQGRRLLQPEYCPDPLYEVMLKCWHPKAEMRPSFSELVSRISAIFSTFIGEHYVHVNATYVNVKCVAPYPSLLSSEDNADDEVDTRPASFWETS

[5] = target: cAMP-dependent protein kinase catalytic subunit alpha (Homo sapiens, UniProt P17612); assay: Inhibition of PKAa (unknown origin)
[6] = target: Tyrosine-protein kinase JAK2 (Homo sapiens, UniProt O60674); assay: Inhibition of JAK2 (unknown origin)
[7] = target: Rho-associated protein kinase (Homo sapiens, UniProt O75116+Q13464); assay: Inhibition of ROCK (unknown origin); type: protein-complex assay
[8] = target: Phosphatidylinositol 4,5-bisphosphate 3-kinase catalytic subunit gamma isoform (Homo sapiens, UniProt P48736); assay: Inhibition of PI3Kgamma (unknown origin)
Sequence of Phosphatidylinositol 4,5-bisphosphate 3-kinase catalytic subunit gamma isoform (P48736 whole entry, canonical isoform): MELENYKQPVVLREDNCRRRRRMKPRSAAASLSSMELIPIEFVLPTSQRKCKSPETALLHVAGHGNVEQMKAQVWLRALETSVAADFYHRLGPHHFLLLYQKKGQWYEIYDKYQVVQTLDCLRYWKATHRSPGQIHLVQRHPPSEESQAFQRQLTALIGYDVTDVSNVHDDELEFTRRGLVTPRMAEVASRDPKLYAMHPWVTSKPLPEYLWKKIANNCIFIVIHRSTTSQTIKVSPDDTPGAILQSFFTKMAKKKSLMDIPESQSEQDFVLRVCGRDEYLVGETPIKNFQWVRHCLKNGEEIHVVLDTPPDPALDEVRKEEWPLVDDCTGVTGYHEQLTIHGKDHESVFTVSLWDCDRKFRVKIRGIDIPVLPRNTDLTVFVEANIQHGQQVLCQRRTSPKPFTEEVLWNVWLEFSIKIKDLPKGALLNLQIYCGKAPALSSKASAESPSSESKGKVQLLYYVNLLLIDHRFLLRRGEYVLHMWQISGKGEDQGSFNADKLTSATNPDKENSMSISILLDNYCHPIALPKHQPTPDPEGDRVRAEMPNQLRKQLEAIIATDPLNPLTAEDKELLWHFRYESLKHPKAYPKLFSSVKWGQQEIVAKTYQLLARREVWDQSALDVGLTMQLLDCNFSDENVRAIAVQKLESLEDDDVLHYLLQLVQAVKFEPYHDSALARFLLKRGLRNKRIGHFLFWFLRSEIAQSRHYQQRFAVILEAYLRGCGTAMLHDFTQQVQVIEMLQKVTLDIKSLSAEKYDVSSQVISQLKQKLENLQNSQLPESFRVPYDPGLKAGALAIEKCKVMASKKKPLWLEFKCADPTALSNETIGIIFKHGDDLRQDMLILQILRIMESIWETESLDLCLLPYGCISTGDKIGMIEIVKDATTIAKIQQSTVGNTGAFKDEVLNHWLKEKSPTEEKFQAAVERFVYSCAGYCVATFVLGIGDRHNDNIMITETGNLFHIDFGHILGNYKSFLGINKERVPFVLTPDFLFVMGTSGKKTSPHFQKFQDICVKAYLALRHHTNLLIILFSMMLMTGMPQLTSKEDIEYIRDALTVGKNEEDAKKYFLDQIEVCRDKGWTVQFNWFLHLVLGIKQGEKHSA

[9] = test system: Influenza A virus; assay: Antiviral activity against Influenza A virus A/PR/8/34 strain incubated with MDCK cells assessed as cell protection after 72 hrs by phenotypic cell protection assay; type: functional, organism-based; conditions: A/Puerto Rico/8/1934(H1N1)
[10] = target: Cyclin-dependent kinase 2 (Homo sapiens, UniProt P24941); assay: Inhibition of CDK2 (unknown origin)
[11] = target: Phosphatidylinositol 4,5-bisphosphate 3-kinase catalytic subunit beta isoform (Homo sapiens, UniProt P42338); assay: Inhibition of PI3Kbeta (unknown origin)
[12] = target: Serine/threonine-protein kinase PLK1 (Homo sapiens, UniProt P53350); assay: Inhibition of PLK (unknown origin)
[13] = target: T3, Receptor-type tyrosine-protein kinase FLT3 (Homo sapiens, UniProt P36888); assay: Inhibition of FLT3 (unknown origin)
T3 sequence (P36888 whole entry): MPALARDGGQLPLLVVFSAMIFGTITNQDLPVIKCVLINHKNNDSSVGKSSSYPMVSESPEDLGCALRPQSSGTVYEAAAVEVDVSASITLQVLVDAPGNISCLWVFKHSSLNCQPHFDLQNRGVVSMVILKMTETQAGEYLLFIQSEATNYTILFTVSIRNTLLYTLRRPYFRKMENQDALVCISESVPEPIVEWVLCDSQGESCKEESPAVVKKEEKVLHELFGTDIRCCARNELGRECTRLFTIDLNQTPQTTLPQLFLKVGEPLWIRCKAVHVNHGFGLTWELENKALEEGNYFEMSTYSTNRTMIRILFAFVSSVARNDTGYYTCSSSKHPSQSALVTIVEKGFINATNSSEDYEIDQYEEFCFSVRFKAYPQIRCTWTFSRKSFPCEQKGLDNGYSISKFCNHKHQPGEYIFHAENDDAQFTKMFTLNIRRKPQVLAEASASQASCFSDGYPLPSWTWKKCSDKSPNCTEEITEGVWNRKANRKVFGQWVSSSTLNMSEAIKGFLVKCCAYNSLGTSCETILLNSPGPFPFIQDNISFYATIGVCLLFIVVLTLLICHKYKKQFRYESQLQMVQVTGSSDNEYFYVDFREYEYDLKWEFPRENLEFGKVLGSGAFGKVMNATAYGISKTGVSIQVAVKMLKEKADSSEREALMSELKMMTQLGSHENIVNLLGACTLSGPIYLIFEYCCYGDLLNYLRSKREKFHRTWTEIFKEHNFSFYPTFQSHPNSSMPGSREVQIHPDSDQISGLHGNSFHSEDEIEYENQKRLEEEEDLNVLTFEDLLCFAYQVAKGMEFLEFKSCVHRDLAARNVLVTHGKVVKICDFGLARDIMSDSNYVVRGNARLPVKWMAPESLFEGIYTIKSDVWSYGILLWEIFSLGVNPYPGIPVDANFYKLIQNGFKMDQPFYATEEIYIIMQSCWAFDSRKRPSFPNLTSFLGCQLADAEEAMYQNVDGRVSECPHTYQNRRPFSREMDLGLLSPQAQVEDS

[14] = target: Phosphatidylinositol 4,5-bisphosphate 3-kinase catalytic subunit alpha isoform (Homo sapiens, UniProt P42336); assay: Inhibition of PI3Kalpha (unknown origin)
[15] = test system: Influenza A virus; assay: Antiviral activity against influenza A virus A/PR/8/34 strain incubated with MDCK cells assessed as reduction of viral RNA level equal to 1% of control level after 72 hrs by branched DNA assay; type: functional, organism-based; conditions: A/Puerto Rico/8/1934(H1N1)
[16] = target: Mitogen-activated protein kinase 10 (Homo sapiens, UniProt P53779); assay: Inhibition of JNK3 (unknown origin)
Sequence of Mitogen-activated protein kinase 10 (P53779 whole entry): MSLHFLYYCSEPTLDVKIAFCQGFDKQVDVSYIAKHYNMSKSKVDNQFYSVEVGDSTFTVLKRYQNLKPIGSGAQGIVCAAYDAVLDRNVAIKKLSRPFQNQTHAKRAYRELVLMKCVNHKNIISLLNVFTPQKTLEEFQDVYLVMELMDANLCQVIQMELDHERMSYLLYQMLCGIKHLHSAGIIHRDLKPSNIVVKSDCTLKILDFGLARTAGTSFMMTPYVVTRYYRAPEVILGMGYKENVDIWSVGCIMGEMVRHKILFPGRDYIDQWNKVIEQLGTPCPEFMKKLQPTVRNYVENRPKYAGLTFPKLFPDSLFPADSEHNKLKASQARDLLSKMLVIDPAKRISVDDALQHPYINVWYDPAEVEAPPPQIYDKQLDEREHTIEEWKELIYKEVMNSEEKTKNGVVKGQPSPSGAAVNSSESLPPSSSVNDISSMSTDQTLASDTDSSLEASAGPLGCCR

[17] = target: Proto-oncogene tyrosine-protein kinase Src (Homo sapiens, UniProt P12931); assay: Inhibition of SRC (unknown origin)
Sequence of Proto-oncogene tyrosine-protein kinase Src (P12931 2-536 limits assumed): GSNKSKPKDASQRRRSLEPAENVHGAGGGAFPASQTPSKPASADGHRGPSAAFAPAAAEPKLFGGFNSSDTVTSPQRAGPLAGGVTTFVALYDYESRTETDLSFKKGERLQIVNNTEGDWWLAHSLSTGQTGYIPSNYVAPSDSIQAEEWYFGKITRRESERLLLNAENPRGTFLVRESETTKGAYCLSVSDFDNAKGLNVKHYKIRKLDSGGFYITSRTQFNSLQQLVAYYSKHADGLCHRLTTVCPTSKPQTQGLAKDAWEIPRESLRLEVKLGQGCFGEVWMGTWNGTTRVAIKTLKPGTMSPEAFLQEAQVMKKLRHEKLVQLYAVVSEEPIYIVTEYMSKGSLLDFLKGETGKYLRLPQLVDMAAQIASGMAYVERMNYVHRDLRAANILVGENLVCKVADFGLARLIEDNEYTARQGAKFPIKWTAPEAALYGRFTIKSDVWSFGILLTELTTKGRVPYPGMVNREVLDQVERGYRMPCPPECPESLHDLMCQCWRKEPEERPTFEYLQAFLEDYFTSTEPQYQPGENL

[18] = target: Tyrosine-protein kinase SYK (Homo sapiens, UniProt P43405); assay: Inhibition of SYK (unknown origin)
[19] = target: Glycogen synthase kinase-3 (Homo sapiens, UniProt P49840+P49841); assay: Inhibition of GSK3 (unknown origin); type: protein assay

Row | Compound | Ki [1] [nM] | Ki [2] [nM] | Ki [3] [nM] | Ki [4] [nM] | Ki [5] [nM] | Ki [6] [nM] | Ki [7] [nM] | Ki [8] [nM] | IC50 [9] [nM] | Ki [10] [nM] | Ki [11] [nM] | Ki [12] [nM] | Ki [13] [nM] | Ki [14] [nM] | EC50 [15] [nM] | EC99 [15] [µM] | Ki [16] [nM] | Ki [17] [nM] | Ki [18] [nM] | Ki [19] [nM]
1 | Oc1cc([C@H]2C3CCC(CC3)[C@@H]2Nc2nc(-c3c[nH]c4ncc(F)cc34)ncc2F)[nH]n1 (mixture of isomers) | > 4000 | > 4000 | > 4000 | > 4000 | > 4000 | > 4000 | > 4000 | > 4000 | 160 | > 4000 | > 4000 | 1700 | 4000 | > 4000 | 140 | 0.76 | > 4000 | > 4000 | > 4000 | 1200
2 | O=P(O)(O)[C@H]1C2CCC(CC2)[C@@H]1Nc1nc(-c2c[nH]c3ncc(F)cc23)ncc1F (mixture of isomers) | > 4000 | > 4000 | > 4000 | > 4000 | > 4000 | > 4000 | > 4000 | > 4000 | 91 | > 4000 | > 4000 | > 4000 | 1100 | > 4000 | 51 | 0.29 | > 4000 | > 4000 | > 4000 | > 4000
3 | CC(O)[C@H]1C2CCC(CC2)[C@@H]1Nc1nc(-c2c[nH]c3ncc(F)cc23)ncc1F (mixture of isomers) | 3300 | > 4000 | 2000 | > 4000 | > 4000 | 240 | 310 | 780 | 310 | 1200 | > 4000 | 1000 | 150 | > 4000 | 490 | > 3.1 | > 4000 | 970 | > 4000 | 66
4 | OCC(O)[C@H]1C2CCC(CC2)[C@@H]1Nc1nc(-c2c[nH]c3ncc(F)cc23)ncc1F (mixture of isomers) | 2700 | 1600 | 2400 | > 4000 | 230 | 390 | 1500 | 710 | 68 | > 4000 | 2500 | 510 | 160 | 2600 | 41 | 0.18 | > 4000 | 3500 | 3400 | 78
5 | O=P(O)(O)CC[C@H]1C2CCC(CC2)[C@@H]1Nc1nc(-c2c[nH]c3ncc(F)cc23)ncc1F (mixture of isomers) | > 4000 | 3100 | > 4000 | > 4000 | > 4000 | 620 | 250 | 400 | 200 | > 4000 | > 4000 | 320 | > 4000 | 850 | 330 | 2.1 | > 4000 | > 4000 | > 4000 | 120
6 | Oc1cc([C@H]2C3CCC(CC3)[C@@H]2Nc2nc(-c3c[nH]c4ncc(F)cc34)ncc2F)on1 (mixture of isomers) | > 4000 | > 4000 | > 4000 | > 4000 | > 4000 | > 4000 | > 4000 | 690 | 1 | > 4000 | > 4000 | > 4000 | > 4000 | 1300 | 2 | 0.033 | > 4000 | > 4000 | > 4000 | 1600
7 | Oc1cc([C@H]2C3CCC(CC3)[C@@H]2Nc2nc(-c3c[nH]c4ncc(F)cc34)ncc2F)no1 (mixture of isomers) | > 4000 | > 4000 | > 4000 | > 4000 | 590 | 200 | > 4000 | 750 | 72 | > 4000 | > 4000 | 1000 | 800 | 880 | 11 | 0.062 | > 4000 | > 4000 | > 4000 | 60
8 | Fc1cnc2[nH]cc(-c3ncc(F)c(N[C@H]4C5CCC(CC5)[C@@H]4c4nnn[nH]4)n3)c2c1 (mixture of isomers) | > 4000 | > 4000 | > 4000 | > 4000 | > 4000 | > 4000 | > 4000 | 2900 | 25 | > 4000 | > 4000 | > 4000 | > 4000 | 1800 | 38 | 0.18 | > 4000 | > 4000 | > 4000 | > 4000
